Where “and” joins values, the source holds several entries; their conditions need not be identical. Equal entries are not always repeated.
Target: T1, human TAS2R1 (Homo sapiens, UniProt Q9NYW7)
T1 construct: expressed in transfected cells; host or cells: HEK293T-Gα16gust44
T1 sequence (Q9NYW7 1-299): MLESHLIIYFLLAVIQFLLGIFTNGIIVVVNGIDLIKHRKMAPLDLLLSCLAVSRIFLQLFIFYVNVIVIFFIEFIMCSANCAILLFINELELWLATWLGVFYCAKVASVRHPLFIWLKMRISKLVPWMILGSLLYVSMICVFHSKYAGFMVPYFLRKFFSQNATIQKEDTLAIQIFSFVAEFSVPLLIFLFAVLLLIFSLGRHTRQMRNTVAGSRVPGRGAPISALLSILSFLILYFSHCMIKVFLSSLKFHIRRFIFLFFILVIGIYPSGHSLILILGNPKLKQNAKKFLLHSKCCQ
Experiment: Calcium imaging assay (FLIPR), HEK293T-Gα16gust44 cells transfected with human TAS2R1
Format: cell-based
How it was run: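 Read-out is Fluo-4 fluorescence change (ΔF/F) after automated application of bile acids (DMSO stocks) to transiently transfected cells. Values are corrected for empty-vector cells and normalized to buffer. Dose-response from three independent experiments in duplicate; threshold concentration set at p < 0.01 versus mock.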

For C[C@H](CCC(=O)NCC(=O)O)[C@H]1CC[C@H]2[C@@H]3[C@H](O)C[C@@H]4C[C@H](O)CC[C@]4(C)[C@H]3C[C@H](O)[C@]12C [Glycocholic Acid, glycocholic acid], the “Efficacy = maximal amplitude (ΔF/F)” value (TAS2R1, bile acids, mean) was 0.1325, the “Efficacy (maximal amplitude ΔF/F), individual data points” value (TAS2R1, bile acids, single replicates, listed as GCA) was 0.1311 and 0.1247 and 0.1416 and the RLU (Time 0 s (second time grid)) was 0 RLU. It also gave an RLU (Time 2 s) of 1.34 RLU, an RLU (Time 4 s) of -10.9328 RLU and an RLU (Time 6 s) of -2.093 RLU. The RLU (Time 8 s) was -18.797 RLU, the RLU (Time 12 s) was -1.765 RLU and the RLU (Time 14 s) was -6.3 RLU. The RLU (Time 16 s) was 4.111 RLU, the RLU (Time 18 s) was 11.3452 RLU and the RLU (Time 18.781 s) was -8.381 RLU. The RLU (Time 20.781 s) was -65.4734 RLU, the RLU (Time 22.781 s) was -29.3432 RLU and the RLU (Time 24.781 s) was 49.9011 RLU. It also gave an RLU (Time 26.781 s) of 96.1968 RLU, an RLU (Time 28.781 s) of 184.074 RLU and an RLU (Time 30.781 s) of 256.685 RLU. The RLU (Time 32.781 s) was 311.082 RLU, the RLU (Time 34.781 s) was 379.127 RLU and the RLU (Time 36.781 s) was 406.227 RLU. The RLU (Time 38.781 s) was 484.171 RLU, the RLU (Time 40.781 s) was 488.749 RLU and the RLU (Time 42.781 s) was 562.235 RLU. For the same compound, the RLU (Time 44.781 s) was 571.006 RLU, the RLU (Time 46.781 s) was 594.154 RLU and the RLU (Time 48.781 s) was 570.694 RLU. It also gave an RLU (Time 50.781 s) of 587.34 RLU, an RLU (Time 52.781 s) of 583.343 RLU and an RLU (Time 54.781 s) of 607.705 RLU. It also gave an RLU (Time 56.781 s) of 600.065 RLU, an RLU (Time 58.781 s) of 617.139 RLU and an RLU (Time 60.781 s) of 617.101 RLU. It also gave an RLU (Time 62.781 s) of 619.569 RLU, an RLU (Time 64.781 s) of 627.557 RLU and an RLU (Time 66.781 s) of 602.719 RLU. It also gave an RLU (Time 68.781 s) of 631.839 RLU, an RLU (Time 70.781 s) of 609.358 RLU and an RLU (Time 72.781 s) of 606.454 RLU. It also gave an RLU (Time 74.781 s) of 603.445 RLU, an RLU (Time 76.781 s) of 621.396 RLU and an RLU (Time 78.781 s) of 618.749 RLU. The RLU (Time 80.781 s) was 605.728 RLU, the RLU (Time 82.781 s) was 588.632 RLU and the RLU (Time 84.781 s) was 592.001 RLU. The RLU (Time 86.781 s) was 573.367 RLU, the RLU (Time 88.781 s) was 587.481 RLU and the RLU (Time 90.781 s) was 582.427 RLU. For the same compound, the RLU (Time 92.781 s) was 543.758 RLU, the RLU (Time 94.781 s) was 568.088 RLU and the RLU (Time 96.781 s) was 550.308 RLU. It also gave an RLU (Time 98.781 s) of 566.578 RLU, an RLU (Time 100.781 s) of 550.017 RLU and an RLU (Time 102.781 s) of 549.55 RLU. For the same compound, the RLU (Time 104.781 s) was 541.673 RLU, the RLU (Time 106.781 s) was 534.917 RLU and the RLU (Time 108.781 s) was 501.47 RLU. For the same compound, the RLU (Time 110.781 s) was 477.052 RLU, the RLU (Time 112.781 s) was 487.765 RLU and the RLU (Time 114.781 s) was 493.52 RLU. For the same compound, the RLU (Time 116.781 s) was 450.802 RLU, the RLU (Time 118.781 s) was 454.358 RLU and the RLU (Time 120.781 s) was 451.439 RLU. For the same compound, the RLU (Time 122.781 s) was 430.145 RLU, the RLU (Time 124.781 s) was 453.415 RLU and the RLU (Time 126.781 s) was 442.632 RLU. It also gave an RLU (Time 128.781 s) of 400.74 RLU, an RLU (Time 130.781 s) of 403.872 RLU and an RLU (Time 132.781 s) of 393.75 RLU. For the same compound, the RLU (Time 134.781 s) was 397.711 RLU, the RLU (Time 136.781 s) was 397.074 RLU and the RLU (Time 137.547 s) was 371.152 RLU. For the same compound, the RLU (Time 143.547 s) was 348.952 RLU, the RLU (Time 149.547 s) was 319.38 RLU and the RLU (Time 155.547 s) was 291.839 RLU. For the same compound, the RLU (Time 161.547 s) was 291.362 RLU, the RLU (Time 167.547 s) was 251.037 RLU and the RLU (Time 173.547 s) was 217.997 RLU. The RLU (Time 179.547 s) was 213.168 RLU, the RLU (Time 185.547 s) was 202.093 RLU and the RLU (Time 191.547 s) was 176.088 RLU. The RLU (Time 197.547 s) was 167.876 RLU, the RLU (Time 203.547 s) was 164.283 RLU and the RLU (Time 209.547 s) was 146.788 RLU. The RLU (Time 215.547 s) was 144.843 RLU, the RLU (Time 221.547 s) was 126.114 RLU and the RLU (Time 227.547 s) was 89.1702 RLU. It also gave an RLU (Time 233.547 s) of 107.472 RLU, an RLU (Time 239.547 s) of 82.2731 RLU and an RLU (Time 245.547 s) of 57.4201 RLU. For the same compound, the RLU (Time 293.547 s) was 58.9267 RLU, the RLU (Time 299.547 s) was 40.6004 RLU and the RLU (calcium trace, sheet TAS2R1, Time 305.547 s) was 58.5113 RLU. It also gave an RLU (calcium trace, sheet TAS2R1, Time 311.547 s) of 53.2069 RLU, an RLU (calcium trace, sheet TAS2R1, Time 317.547 s) of 43.3091 RLU and an RLU (calcium trace, sheet TAS2R1, Time 323.547 s) of 43.6147 RLU. For the same compound, the RLU (calcium trace, sheet TAS2R1, Time 329.547 s) was 33.081 RLU, the RLU (calcium trace, sheet TAS2R1, Time 335.547 s) was 47.1496 RLU and the RLU (calcium trace, sheet TAS2R1, Time 341.547 s) was 32.1596 RLU. For the same compound, the RLU (calcium trace, sheet TAS2R1, Time 347.547 s) was 48.6454 RLU, the RLU (calcium trace, sheet TAS2R1, Time 353.547 s) was 51.461 RLU and the RLU (calcium trace, sheet TAS2R1, Time 359.547 s) was 49.6251 RLU. The “Δ F/F” value (conc. 0,01 mM, TAS2R1) was 0.004283, the “Δ F/F” value (conc. 0,1 mM, TAS2R1) was 0.04907 and the “Δ F/F” value (conc. 0,03 mM, TAS2R1) was 0.009584. The “Δ F/F” value (conc. 0,3 mM, TAS2R1) was 0.1325, the “Δ F/F” value (conc. 0,001 mM, TAS2R1) was 0.006338 and the “Δ F/F” value (conc. 0,003 mM, TAS2R1) was -0.001187. The “Activation threshold concentration TAS2R1” value (lowest concentration with significantly increased fluorescence vs empty vector (p < 0.01)) was 100 µM and 100.00 µM.

From paper PMC10247784, “Physiological activation of human and mouse bitter taste receptors by bile acids” (Communications Biology, 2023)
